Values quoted from earlier work, collected in publication PMC7904743, “WIDOCK: a reactive docking protocol for virtual screening of covalent inhibitors” (Journal of Computer-Aided Molecular Design, 2021).
Where two headings read alike, the source gives them in different places.

Tests used:
[1] = test system: NUDT7; details: protein labeling at 200 μM; experimental actives if % labeling higher than 50%; cited from earlier work
[2] = test system: OTUB2; details: experimental actives if % labeling higher than 50%, cited from earlier work
[3] = thiol reactivity, cited from earlier work
[4] = natural log of average rate constant k
[5] = natural logarithm of average rate constant
[6] = natural log of average kinetic rate constant
[7] = natural log of average rate constant

Structure (SMILES)	NUDT7 % labeling [1]	OTUB2 % labeling [2]	ln(avg k) [3, 4]	ln(avg k) [3, 5]	OTUB2 % labeling ([2]; OTUB2 protein labeling)	ln(avg k) [3, 6]	ln(avg k) [3, 7]
O=C(CCl)NC1CCN(C(=O)c2ccco2)CC1 [PCM-0102619, O=C(CCl)NC1CCN(C(=O)c2ccco2)CC1]	0%	10%	-16.352	-16.352	–	–	–
Cc1c(C#N)c(NC(=O)CCl)n(-c2ccccc2)c1C [PCM-0102261, Cc1c(C#N)c(NC(=O)CCl)n(-c2ccccc2)c1C]	30%	9%	-16.038	-16.038	–	–	–
Cc1cc(CNC(=O)CCl)cc(C)c1O [PCM-0102431, Cc1cc(CNC(=O)CCl)cc(C)c1O]	0%	64%	-16.592	-16.592	–	–	–
Cc1ccc(-c2nnc(C)[nH]2)c(NC(=O)CCl)c1 [PCM-0102775, Cc1ccc(-c2nnc(C)[nH]2)c(NC(=O)CCl)c1]	13%	–	–	–	0%	-16.632	-16.632
O=C(CCl)N1CCCCCC1 [PCM-0102751, O=C(CCl)N1CCCCCC1]	0%	–	–	–	0%	-16.327	-16.327
CC(=O)c1ccccc1NC(=O)CCl [PCM-0102282, CC(=O)c1ccccc1NC(=O)CCl]	0%	0%	-16.331	-16.331	–	–	–
CC12CCC(CC1=NNC(=O)CCl)C2(C)C (stereo not shown) [PCM-0102498, CC12CCC(CC1=NNC(=O)CCl)C2(C)C]	0%	0%	-15.811	-15.811	–	–	–
CC(NC(=O)CCl)c1ccc(Cl)c(Cl)c1 (stereo not shown) [PCM-0102096, CC(NC(=O)CCl)c1ccc(Cl)c(Cl)c1]	51%	26%	-16.200	-16.200	–	–	–
O=C(CCl)Nc1cccc(N2CCCC2=O)c1 [PCM-0102179, O=C(CCl)Nc1cccc(N2CCCC2=O)c1]	12%	47%	-15.495	-15.495	–	–	–
CC(C)(C)NC(=O)CN1CCN(C(=O)CCl)CC1 [PCM-0102302, CC(C)(C)NC(=O)CN1CCN(C(=O)CCl)CC1]	8%	13%	-15.639	-15.639	–	–	–
O=C(CCl)N(C1CCCCC1)C1CCS(=O)(=O)C1 (stereo not shown) [PCM-0102760, O=C(CCl)N(C1CCCCC1)C1CCS(=O)(=O)C1]	8%	–	–	–	0%	-15.274	-15.274
O=C(CCl)Nc1cc(C(=O)O)ccc1Cl [PCM-0102590, O=C(CCl)Nc1cc(C(=O)O)ccc1Cl]	0%	0%	-17.114	-17.114	–	–	–
Cc1cc([N+](=O)[O-])ccc1NC(=O)CCl [PCM-0102134, Cc1cc([N+](=O)[O-])ccc1NC(=O)CCl]	10%	11%	-16.240	-16.240	–	–	–
CC(NC(=O)CCl)c1ccc(Br)cc1 (stereo not shown) [PCM-0102374, CC(NC(=O)CCl)c1ccc(Br)cc1]	23%	34%	-16.325	-16.325	–	–	–
O=C(CCl)N1CCN(Cc2ccc(Br)s2)CC1 [PCM-0102169, O=C(CCl)N1CCN(Cc2ccc(Br)s2)CC1]	0%	0%	-15.949	-15.949	–	–	–
CC1CC(C)CN(C(=O)CCl)C1 (stereo not shown) [PCM-0102789, CC1CC(C)CN(C(=O)CCl)C1]	0%	–	–	–	8%	-16.705	-16.705

Structure (SMILES)	NUDT7 % labeling [1]	OTUB2 % labeling [2]	ln(avg k) [3, 4]	ln(avg k) [3, 5]	OTUB2 % labeling ([2]; OTUB2 protein labeling)	ln(avg k) [3, 6]	ln(avg k) [3, 7]
O=C(CCl)N1CCN(S(=O)(=O)c2ccc3ccccc3c2)CC1 [PCM-0102836, O=C(CCl)N1CCN(S(=O)(=O)c2ccc3ccccc3c2)CC1]	0%	–	–	–	0%	-15.169	-15.169
CN(Cc1ccc(Cl)c(Cl)c1)C(=O)CCl [PCM-0102349, CN(Cc1ccc(Cl)c(Cl)c1)C(=O)CCl]	59%	0%	-15.496	-15.496	–	–	–
Cc1nc(CN2CCN(C(=O)CCl)CC2)cs1 [PCM-0102630, Cc1nc(CN2CCN(C(=O)CCl)CC2)cs1]	0%	0%	-15.690	-15.690	–	–	–
O=C(CCl)N1CCCC1c1ccc2c(c1)OCCO2 (stereo not shown) [PCM-0102298, O=C(CCl)N1CCCC1c1ccc2c(c1)OCCO2]	100%	0%	-15.407	-15.407	–	–	–
CC(C#N)(NC(=O)CCl)C1CC1 (stereo not shown) [PCM-0102664, CC(C#N)(NC(=O)CCl)C1CC1]	0%	0%	-16.170	-16.170	–	–	–
Cc1cc(NC(=O)CCl)n(C(C)(C)C)n1 [PCM-0103057, Cc1cc(NC(=O)CCl)n(C(C)(C)C)n1]	0%	–	–	–	0%	-16.148	-16.148
O=C(CCl)NC(=O)Nc1ccc(Br)cc1 [PCM-0102308, O=C(CCl)NC(=O)Nc1ccc(Br)cc1]	17%	10%	-16.949	-16.949	–	–	–
CC(C)(C)n1ncc2c1CCCC2NC(=O)CCl (stereo not shown) [PCM-0103046, CC(C)(C)n1ncc2c1CCCC2NC(=O)CCl]	0%	–	–	–	36%	-16.467	-16.467
O=C(CCl)Nc1nc(-c2cccs2)cs1 [PCM-0102784, O=C(CCl)Nc1nc(-c2cccs2)cs1]	77%	–	–	–	7%	-16.029	-16.029
COc1cccc(NC(=O)CCl)c1 [PCM-0102410, COc1cccc(NC(=O)CCl)c1]	0%	0%	-15.888	-15.888	–	–	–
O=C(CCl)Nc1cc(Cl)ccc1-n1cncn1 [PCM-0102258, O=C(CCl)Nc1cc(Cl)ccc1-n1cncn1]	21%	0%	-15.839	-15.839	–	–	–
NC(=O)C1CCCCN1C(=O)CCl (stereo not shown) [PCM-0102203, NC(=O)C1CCCCN1C(=O)CCl]	0%	0%	-15.988	-15.988	–	–	–
CCN(C(=O)CCl)C1CC1 [PCM-0102594, CCN(C(=O)CCl)C1CC1]	0%	0%	-17.070	-17.070	–	–	–
O=C(CCl)N1CCNCC1 [PCM-0102476, O=C(CCl)N1CCNCC1]	0%	0%	-17.059	-17.059	–	–	–
CC1CCN(C(=O)CCl)C2CCCCC12 (stereo not shown) [PCM-0102831, CC1CCN(C(=O)CCl)C2CCCCC12]	37%	–	–	–	0%	-15.612	-15.612
